The values below come from article PMC13288762 (Frontiers in Medicine, 2026).

The test system of series [1] is Mdr2−/− mice (model of PSC). Also noted: method as in PMID 10711453. Particulars: cited from earlier work.
Series [2] concerns Mdr2−/− mice (model of PSC). The series is described as follows: Ductular reaction and biliary senescence in Mdr2−/− mice (CK-19 IHC, p16 IF, qPCR). Conditions: 20 mg/kg IP. The series is classed as in vivo, mouse. As for the experimental part:
(§1) Animal procedures were performed according to protocols approved by Indiana University School of Medicine Institutional Animal Care and Use Committee. […] Male Mdr2^−/− mice (n = 8) were collected at twelve-weeks for PSC model. Twelve-week-old male Friend Virus B NIH Jackson (FVB/NJ [FVB/wild type (WT) control], n = 8) mice were used as control WT for Mdr2^−/−.
(§2) In all groups, serum, liver, cholangiocytes, and cholangiocyte supernatants were collected as described ([18], [19]). The collected liver was divided into three portions: (i) snap-frozen tissue; (ii) OCT-embedded blocks (5 μm cryosections) for immunofluorescence (IF); and (iii) formalin-fixed, paraffin-embedded (FFPE) blocks (4 μm sections) for immunohistochemistry (IHC).
Ductular reaction was evaluated in FFPE mouse liver sections by IHC for CK-19 to specifically mark bile ducts. Stained slides were scanned by a digital scanner (Aperio AT2 scanner; Leica Biosystems). CK-19-positive area was quantified using the Image-Pro Premier software (Rockville, MD). Biliary senescence was evaluated by: (i) IF for p16 expression in frozen liver sections co-stained with CK-19 (to mark bile ducts) and (ii) mRNA expression of cellular senescence markers, cyclin dependent kinase inhibitor 2a (Cdkn2a; gene for p16), cyclin dependent kinase inhibitor 2c (Cdkn2c, gene for p18) and galactosidase, beta 1-like (Glb1l) in isolated mouse cholangiocytes ([3], [19]).
(§3) Since we found increased chymase levels in human PSC livers, we evaluated the pharmacological inhibition of chymase in modulating PSC in Mdr2^−/− mice. […] All treatment groups were compared to Mdr2^−/− mice.
A general note: Quantitative PCR measures a nucleic acid by following its amplification.

Series [3] relates to Mdr2−/− mice (model of PSC). The series is described as follows: Liver damage, bile acids and inflammation in Mdr2−/− mice (H&E, TBA kit, F4/80 IHC). The series is classed as in vivo, mouse. Conditions: 20 mg/kg IP daily, 2 weeks. As for the experimental part:
as §1, §2
Liver damage was assessed by hematoxylin and eosin (H&E) staining in FFPE mouse liver sections and scored in a coded fashion to determine portal inflammation. Serum and liver total bile acids (TBAs) were determined using a TBA Assay Kit (Colorimetric, Sigma-Aldrich).
(§4) Liver inflammation was evaluated by IHC for F4/80 in FFPE mouse liver sections, and positive cells were quantified by Image-Pro Premier software (Rockville, MD). Liver MC infiltration was detected with IHC for tryptase β-2 (Tpsb2) and mucosal MC chymase-1 (mMCP1) in liver sections. MCs were semi-quantified as Tpsb2 or mMCP1 positivite cell number/total area with Image-Pro Premier software (Rockville, MD). MC activation was determined by qPCR for Fc fragment of IgE, high affinity I, receptor for alpha polypeptide (Fcer1a), Mcpt1 and Tpsb2 in total liver samples.
as §3

Series [4] has as its system Mdr2−/− mice (model of PSC). The series is described as follows: Liver fibrosis in Mdr2−/− mice (FG/SR, hydroxyproline, desmin IF, qPCR). The series is classed as in vivo, mouse. As for the experimental part: as §1, §2
Collagen deposition was determined by Fast Green/Sirius Red staining in FFPE mouse liver sections and quantified by the Image-Pro Premier software (Rockville, MD). Liver fibrosis was also determined by measuring hydroxyproline levels in total liver samples using the hydroxyproline assay kit (MAK008-1KT; Millipore Sigma, Billerica, MA). To detect activated HSCs, IF for desmin (co-stained with CK-19) was performed in frozen liver sections with semi-quantification ([20], [21]). The mRNA expression of the fibrosis markers, collagen type I alpha 1 (Col1a1) and tissue inhibitor of metalloproteinases 2 (Timp2) and transforming growth factor beta 1 (Tgfb1) was measured in total mouse livers by qPCR.
as §3

On the set-up of series [5]: method as in earlier work. Conditions: Phase 2 clinical trial, atopic dermatitis; cited from earlier work.
In series [6] the test system is Mdr2−/− mice (model of PSC). Put plainly: MC infiltration and activation in liver of Mdr2−/− mice (IHC, qPCR). It counts as in vivo, mouse. Particulars: 20 mg/kg IP daily, 2 weeks. As for the experimental part:
as §1, §2, §4, §3

The test system of another series is aortic aneurysm model. Also noted: method as in PMID 31128093. Conditions: 10 mg/kg for 4 weeks; cited from earlier work.
The mark [7] stands for this setting: 20 mg/kg IP daily, 2 weeks, qPCR total liver.
The mark [8] stands for this setting: 20 mg/kg IP daily, 2 weeks, vs untreated mice.
The mark [9] stands for this setting: male Mdr2−/− mice, vs untreated Mdr2−/−, qPCR total liver.

Turning to `O=C(O)c1cc(=O)c2c(OCC(O)COc3cccc4oc(C(=O)O)cc(=O)c34)cccc2o1` [cromolyn sodium], the “levels of MC mediators, inflammation, tissue damage, and fibrosis” value in series [1] was “attenuates”.

For `CCC[C@@H](NC(=O)N1CC(=NOCC)NC[C@H](Cc2cc(Cl)ccc2OC)C1=O)c1ccc(C(=O)O)c(N)c1` [INVA8001], the “p16 immunoreactivity in liver” value in series [2] (IF co-stained with CK-19) is reported as “reduced”. Also, in series [2] (IHC), the “bile duct mass (CK-19-positive bile ducts)” value is on record as “significant reduction”. In addition, in series [2] (qPCR isolated cholangiocytes), the “Cdkn2a expression in isolated cholangiocytes” value was “reduced”, the “Cdkn2c expression in isolated cholangiocytes” value is listed as “reduced”, the “Glb1l expression in isolated cholangiocytes” value was “reduced” and the “Tgfb1 expression in isolated cholangiocytes” value is recorded as “reduced”. Further, in series [2] (qPCR total liver), the “Cdkn2a mRNA expression in total liver” value was “reduced”. In addition, in series [3], the “histological damage (H&E)” value was “amelioration” and the “portal inflammation (H&E)” value is given as “amelioration”. Besides, the liver enzymes entry in series [3] (data not shown) is “no significant changes”. Moreover, the “hepatic total bile acid (TBA) accumulation” value in series [3] (liver tissue) was “significant reduction”. In series [3] (portal tracts, IHC), the “number of infiltrating macrophages (F4/80 staining)” value is “significantly reduced”. For the same molecule, the “serum total bile acid (TBA) accumulation” value in series [3] (serum) is recorded as “significant reduction”. Besides, in series [4] (setting [7]), the “Col1a1 gene expression in liver” value is “significantly reduced”, the “Tgfb1 gene expression in liver” value is listed as “significantly reduced” and the “Timp2 gene expression in liver” value is “significantly reduced”. In addition, in series [4] (setting [8]), the “hepatic fibrosis, FG/SR staining” value is given as “decreased” and the liver hydroxyproline content entry is “lowered”. Also, in series [4] (20 mg/kg IP, IF liver sections), the “desmin immunoreactivity (HSC activation)” value is “significantly reduced”. For the same molecule, in series [5], the “safety and tolerability, adverse effects” value is “no significant adverse effects reported”. Moreover, in series [6] (Mdr2−/− mice, IHC), the “number of chymase (mMCP1)-positive cells in liver” value was “significant reduction” and the “number of tryptase (Tpsb2)-positive cells in liver” value is “significant reduction”. Moreover, in series [6] (setting [9]), the “Fcer1a mRNA expression in liver” value was “attenuated”, the “Mcpt1 mRNA expression in liver” value was “attenuated” and the “Tpsb2 mRNA expression in liver” value is given as “decreasing trend (not statistically significant)”. The “efficacy in a model of aortic aneurysm” value in the series on aortic aneurysm model is “effective”.
